Measurements reported in publication PMC10416055, “Structural basis of bidirectional allostery across the heme in a cytochrome P450 enzyme” (The Journal of Biological Chemistry, 2023).

Tested on: CYP121

SMILES	absorbance (Soret peak) of ligand-bound CYP121 [nm]
CC(=O)N1CCN(c2ccc(OCC3COC(Cn4ccnc4)(c4ccc(Cl)cc4Cl)O3)cc2)CC1 (centres unmarked) [ketoconazole]	421
Clc1ccccc1C(c1ccccc1)(c1ccccc1)n1ccnc1 [clotrimazole]	424
